These results are taken from patent US20250134878A1, “COMBINATION OF CHEK1 INHIBITOR AND TOP1 INHIBITOR FOR TREATING COLORECTAL CANCER” (Genome Research Limited, priority 2022, published 2025).

Series [1] has as its system colon cancer cell lines (CL-11, SNU-81 and SW837). Nature of the series: 7x7 matrix combination screen with SN-38, CellTiter-Glo 72 h, Bliss window and HSA window. It is filed as cell-based. The note with it: MSS and KRAS/TP53 double mutant cell lines. On the procedure:
Viability was measured after 72 h of drug treatment using CellTiter-Glo reagent. Single-agent and combination viability measurements were fitted per cell line and multiple parameters derived including single agent values and a range of synergy scores. […] The “Bliss window” was reported as the highest mean Bliss excess value measured across the 25 possible 3×3 submatrices, or ‘windows’, across the 7×7 dose matrix. […] The “HSA window” was reported as the highest mean HSA excess value measured across the 25 possible 3×3 submatrices, or ‘windows’, across the 7×7 dose matrix.
On the technique in general: ATP-based viability assays read luminescence as a measure of living cells.

For series [2] the following is noted: Phase 1 clinical trials; cited from earlier work.
The target in series [3] is ataxia telangiectasia and Rad3 related (ATR) kinase (Homo sapiens, UniProt Q13535). The note with it: cited from earlier work.
Series [4] deals with ATR-driven phosphorylated CHEK1 (P-CHEK1) phosphorylation. Conditions: cell-free assay; cited from earlier work.
The subject of series [5] is SW620, SW837, SNU-81 or LS-1034 cells. In words: CHEK specificity: camptothecin anchor plus CHEK inhibitor libraries, CellTiter-Glo viability after 96 h. Conditions: in combination with camptothecin (anchor, 0.025 µM), 4 cell lines. It is filed as cell-based. How it is done:
After 96 h of drug treatment viability was measured with CellTiter-Glo® 2.0 (CTG; Promega). Drug response curves were fitted and combination response metrics ΔEmax and ΔIC50 calculated by comparing the observed combination response with the expected (Bliss) combination response. The higher the ΔEmax and ΔIC50, the stronger the combination response. SW620, SW837, SNU-81 and LS-1034 are all MSS and KRAS-TP53 double mutant colon cancer cell lines.

In another series the test system is SNU-81 cells. In words: SN-38 dose response after siRNA transfection, viability (CTG). Format: cell-based. Conditions: for IC50: SN-38 added after 30 h, viability 72 h later. How it is done:
(§1) For siRNA experiments, SW837 and SNU-81 cells (8,000 and 16,000 cells per well, respectively) were reverse transfected with siRNAs of a non-targeting pool as negative control (siNT; Dharmacon, D-001810-10-5), polo-like kinase 1 (PLK1) pool as positive control (Dharmacon, L-003290-00-0010), CHEK1 pool (Dharmacon, L-003255-00-0005) or four individual CHEK1 siRNAs (LQ-003255-00-0005), and CHEK2 pool (Dharmacon, L-003256-00-0005) using lipofectamine RNAiMax (Thermofisher). After 30 h, 0.025 µM or a dose range of 0.001-9 µM SN-38 or DMSO were added and viability was measured 72 h later with CTG. Signal was normalised to siNT+DMSO controls. […] FIGS. 4a and 4c confirm that the effect of the TOP1+CHEK combination is primarily mediated through inhibition of CHEK1.
(§2) SW837 and SNU-81 cells (8,000 and 16,000 cells per well, respectively) were reverse transfected with siRNAs of a non-targeting pool as negative control (siNT; Dharmacon, D-001810-10-5), CHEK1 pool (Dharmacon, L-003255-00-0005) or CHEK2 pool (Dharmacon, L-003256-00-0005) using lipofectamine RNAiMax (Thermofisher). After 30 h, a dose range of 0.001-9 µM SN-38 or DMSO were added and viability was measured 72 h later with CTG. Signal was normalised to siNT+DMSO controls. Mean±SD of three independent replicates.

Another series concerns SW837 cells. The description is as above. The note with it: for IC50: SN-38 added after 30 h, viability 72 h later. It is filed as cell-based. How it is done: as §1, §2
Series [6] deals with colon (n=45) cancer cell lines. In words: anchored 2x7 combination screen, viability by CellTiter-Glo after 72 h, synergy over Bliss.
Protocol: To screen efficiently, the inventors used a 2×7 concentration matrix, or “anchored” approach. The inventors screened each anchor compound at two optimised concentrations and a discontinuous 1,000-fold (7-point) dose-response curve of the library compound. Viability was read out after 72 h of drug treatment using CellTiter-Glo and drug responses for single agent and combination responses were fitted.
The synergy and activity rate also subset to MSS (n=30) and MSI (n=15), or KRAS mut (n=24) and KRAS wt (n=21) cell lines.
Activity in MSI (n=15) and MSS (n=30) cell lines was compared (FIG. 1a). KRAS mutant (n=24) cell lines were investigated (n=8, TP53 wild type; n=16 TP53 mutant) (FIG. 1b). […] Plotted are averaged combination responses. Box and whisker plots show the median and interquartile range. A two-sided Welch's t-test was performed (*=p≤0.05, **=p≤0.01, ***=p≤0.001, ****=p≤0.0001).
Viability was read out after 72 h of drug treatment using CellTiter-Glo and drug responses for single agent and combination responses were fitted.
The next series has as its system LoVo cells. The note with it: cited from earlier work.
The next series relates to HT-29 cells. The note with it: cited from earlier work.
In a further series the target is T1, CHEK1 (Homo sapiens, UniProt O14757).
T1 sequence (O14757 1-476): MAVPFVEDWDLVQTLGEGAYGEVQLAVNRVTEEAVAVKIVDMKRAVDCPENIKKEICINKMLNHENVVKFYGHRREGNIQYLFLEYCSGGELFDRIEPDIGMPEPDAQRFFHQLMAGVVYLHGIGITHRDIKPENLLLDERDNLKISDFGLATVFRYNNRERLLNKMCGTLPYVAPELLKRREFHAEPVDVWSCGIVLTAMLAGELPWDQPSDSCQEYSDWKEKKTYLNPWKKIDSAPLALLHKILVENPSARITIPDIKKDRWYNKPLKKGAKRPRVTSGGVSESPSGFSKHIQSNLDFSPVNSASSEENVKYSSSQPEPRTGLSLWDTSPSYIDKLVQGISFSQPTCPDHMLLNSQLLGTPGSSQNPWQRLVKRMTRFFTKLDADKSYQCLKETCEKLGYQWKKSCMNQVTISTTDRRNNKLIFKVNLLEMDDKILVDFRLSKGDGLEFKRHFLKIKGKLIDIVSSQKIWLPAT
Conditions: assay format not stated; read-out: IC50 (CHEK1 inhibitor); cited from earlier work.

Values joined by “and” are separate entries in the source; they are usually repeats but may differ in a detail not shown here. Equal values may be shown once. Read-outs that look alike come from different tables or passages of the source.

Chain of ataxia telangiectasia and Rad3 related (ATR) kinase (Q13535 whole entry): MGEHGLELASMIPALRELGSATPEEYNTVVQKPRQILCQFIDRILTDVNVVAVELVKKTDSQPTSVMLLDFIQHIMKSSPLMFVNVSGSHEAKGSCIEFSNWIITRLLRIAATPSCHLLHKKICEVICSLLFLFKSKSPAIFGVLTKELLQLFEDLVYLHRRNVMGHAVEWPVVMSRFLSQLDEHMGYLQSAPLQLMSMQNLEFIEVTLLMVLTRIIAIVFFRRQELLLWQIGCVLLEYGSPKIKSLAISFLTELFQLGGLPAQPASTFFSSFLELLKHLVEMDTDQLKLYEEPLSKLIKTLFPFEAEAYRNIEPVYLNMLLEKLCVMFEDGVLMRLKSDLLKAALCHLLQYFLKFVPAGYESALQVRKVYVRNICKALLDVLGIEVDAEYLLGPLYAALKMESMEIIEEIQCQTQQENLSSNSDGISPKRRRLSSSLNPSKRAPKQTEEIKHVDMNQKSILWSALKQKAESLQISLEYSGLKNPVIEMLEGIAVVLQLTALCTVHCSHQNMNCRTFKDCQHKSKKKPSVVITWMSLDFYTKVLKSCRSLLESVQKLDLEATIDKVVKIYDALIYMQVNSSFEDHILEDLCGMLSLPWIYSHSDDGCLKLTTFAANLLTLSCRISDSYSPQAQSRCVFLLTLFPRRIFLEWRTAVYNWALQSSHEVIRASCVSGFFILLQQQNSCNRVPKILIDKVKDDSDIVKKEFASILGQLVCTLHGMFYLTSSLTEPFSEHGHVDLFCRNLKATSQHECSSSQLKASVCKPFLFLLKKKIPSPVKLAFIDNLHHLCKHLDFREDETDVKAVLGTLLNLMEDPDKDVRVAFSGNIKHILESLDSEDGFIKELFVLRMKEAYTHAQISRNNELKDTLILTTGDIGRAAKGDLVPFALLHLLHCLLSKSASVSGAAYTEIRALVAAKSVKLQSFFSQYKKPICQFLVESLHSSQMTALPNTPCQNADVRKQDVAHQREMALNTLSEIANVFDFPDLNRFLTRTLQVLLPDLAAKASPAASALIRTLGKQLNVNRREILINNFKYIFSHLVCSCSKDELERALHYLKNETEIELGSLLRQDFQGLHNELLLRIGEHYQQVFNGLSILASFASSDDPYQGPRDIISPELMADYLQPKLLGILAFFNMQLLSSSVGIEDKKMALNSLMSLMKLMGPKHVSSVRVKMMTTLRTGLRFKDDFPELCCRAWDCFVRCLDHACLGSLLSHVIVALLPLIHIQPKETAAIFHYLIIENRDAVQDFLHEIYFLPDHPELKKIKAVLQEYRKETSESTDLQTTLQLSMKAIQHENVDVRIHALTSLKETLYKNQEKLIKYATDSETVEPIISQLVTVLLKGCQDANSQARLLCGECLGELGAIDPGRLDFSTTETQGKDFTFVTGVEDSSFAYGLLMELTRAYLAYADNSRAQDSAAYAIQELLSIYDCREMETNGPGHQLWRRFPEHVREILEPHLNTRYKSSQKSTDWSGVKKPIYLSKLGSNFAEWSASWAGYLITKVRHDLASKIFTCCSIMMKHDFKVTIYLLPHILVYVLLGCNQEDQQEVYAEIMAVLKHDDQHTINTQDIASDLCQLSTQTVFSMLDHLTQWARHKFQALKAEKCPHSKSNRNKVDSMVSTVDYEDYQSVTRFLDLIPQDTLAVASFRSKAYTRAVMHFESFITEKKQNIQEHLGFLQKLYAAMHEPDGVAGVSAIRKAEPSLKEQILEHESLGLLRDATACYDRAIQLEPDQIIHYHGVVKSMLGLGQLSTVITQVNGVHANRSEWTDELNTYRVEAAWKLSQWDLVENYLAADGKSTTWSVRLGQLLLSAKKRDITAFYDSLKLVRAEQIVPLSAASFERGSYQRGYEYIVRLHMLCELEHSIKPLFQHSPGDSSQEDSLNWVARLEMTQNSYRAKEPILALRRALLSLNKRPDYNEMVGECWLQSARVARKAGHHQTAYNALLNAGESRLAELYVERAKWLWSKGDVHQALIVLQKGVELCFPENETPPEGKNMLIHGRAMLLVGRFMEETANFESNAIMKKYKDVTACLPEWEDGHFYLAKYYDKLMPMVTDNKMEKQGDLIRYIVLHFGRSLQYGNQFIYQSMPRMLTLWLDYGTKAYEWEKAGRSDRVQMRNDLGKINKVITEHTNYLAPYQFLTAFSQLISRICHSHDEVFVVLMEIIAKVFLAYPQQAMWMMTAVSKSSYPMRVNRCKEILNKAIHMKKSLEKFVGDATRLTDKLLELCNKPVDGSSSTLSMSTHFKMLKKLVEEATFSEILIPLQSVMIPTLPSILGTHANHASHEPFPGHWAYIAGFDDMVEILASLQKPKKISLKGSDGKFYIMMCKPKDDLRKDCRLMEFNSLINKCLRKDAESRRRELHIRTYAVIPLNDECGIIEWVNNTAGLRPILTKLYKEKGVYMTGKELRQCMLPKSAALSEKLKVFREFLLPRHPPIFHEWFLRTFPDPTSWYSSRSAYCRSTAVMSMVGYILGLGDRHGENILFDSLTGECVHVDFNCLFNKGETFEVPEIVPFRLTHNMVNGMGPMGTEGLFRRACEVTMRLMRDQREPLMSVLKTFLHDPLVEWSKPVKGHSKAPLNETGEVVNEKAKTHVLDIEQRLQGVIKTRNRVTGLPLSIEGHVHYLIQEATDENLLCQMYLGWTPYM
Chain of ataxia telangiectasia and Rad3 related (ATR) kinase (Q8WXE1 whole entry partner): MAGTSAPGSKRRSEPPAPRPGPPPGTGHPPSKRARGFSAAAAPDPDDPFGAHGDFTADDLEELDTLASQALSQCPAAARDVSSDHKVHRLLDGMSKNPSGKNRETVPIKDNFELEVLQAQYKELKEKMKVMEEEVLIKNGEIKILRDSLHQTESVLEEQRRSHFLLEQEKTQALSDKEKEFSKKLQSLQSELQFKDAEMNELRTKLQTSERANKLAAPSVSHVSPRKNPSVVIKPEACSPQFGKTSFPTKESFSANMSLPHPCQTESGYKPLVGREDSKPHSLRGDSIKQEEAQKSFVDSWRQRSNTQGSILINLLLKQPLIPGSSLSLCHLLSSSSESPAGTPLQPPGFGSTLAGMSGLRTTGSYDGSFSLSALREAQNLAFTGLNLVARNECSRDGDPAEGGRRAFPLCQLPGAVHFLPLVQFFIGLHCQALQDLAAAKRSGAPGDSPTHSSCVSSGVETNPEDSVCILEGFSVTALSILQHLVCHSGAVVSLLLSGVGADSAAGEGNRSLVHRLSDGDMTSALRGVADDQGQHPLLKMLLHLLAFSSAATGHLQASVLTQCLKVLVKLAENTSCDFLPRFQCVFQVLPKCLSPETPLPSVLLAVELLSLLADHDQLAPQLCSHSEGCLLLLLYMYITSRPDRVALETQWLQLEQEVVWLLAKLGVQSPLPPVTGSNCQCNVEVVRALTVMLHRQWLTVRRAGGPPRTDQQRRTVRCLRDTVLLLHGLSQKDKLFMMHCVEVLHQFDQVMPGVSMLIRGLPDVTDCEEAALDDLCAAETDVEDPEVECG

`Cc1cnc(NC(=O)Nc2cc(Br)c(C)cc2OC[C@@H]2CNCCO2)cn1` [rabusertib, 1-[5-bromo-4-methyl-2-[[(2S)-morpholin-2-yl]methoxy]phenyl]-3-(5-methylpyrazin-2-yl) urea]: the “synergy (Bliss window and HSA window) in combination with SN-38” value (“synergy (Bliss window and HSA window)” for short) in [1] is “high”. The safety profile result in series [2] was “acceptable safety profile”.

Turning to `Cn1cc(-c2cnn3c(N)c(Br)c([C@@H]4CCCNC4)nc23)cn1` [MK-8776, 6-bromo-3-(1-methyl-1H-pyrazol-4-yl)-5-[(3R)-piperidin-3-yl]pyrazolo[1,5-a]pyrimidin-7-amine], the “synergy (Bliss window and HSA window)” value in [1] is “high”.

For `C[C@H](CN(C)C)Oc1nc(Nc2cc3cccc(Cl)c3cn2)cnc1C#N` [SAR-020106, 5-(8-chloroisoquinolin-3-ylamino)-3-((R)-1-(dimethylamino)propan-2-yloxy) pyrazine-2-carbonitrile], the “synergy (Bliss window and HSA window)” value in series [1] is listed as “high”.

Broadly, the IC50 is the midpoint of a concentration-inhibition curve. As to `Nc1nn2cc(F)cnc2c1C(=O)Nc1cncc(F)c1N1CCC(C(=O)N2CCN(C3COC3)CC2)CC1` [VX-803, 2-amino-6-fluoro-N-[5-fluoro-4-[4-[4-(oxetan-3-yl)piperazine-1-carbonyl]-1-piperidyl]-3-pyridyl]pyrazolo[1,5-a]pyrimidine-3-carboxamide], the “Ki ATR kinase” value in series [3] was < 0.15 nM. For the same compound, the IC50 in [4] is 8 nM.

Take `COc1cc2nc(-c3cc(F)ccc3O)nc(N[C@@H]3CNC[C@H]3C(C)(C)O)c2cc1OC` [CCT241533]: in [5], the “median ΔEmax (shift in efficacy over Bliss)” value was “did not”.

For the compound `CCc1c2c(nc3ccc(O)cc13)-c1cc3c(c(=O)n1C2)COC(=O)[C@]3(O)CC` [SN-38, (19S)-10,19-diethyl-7,19-dihydroxy-17-oxa-3,13-diazapentacyclo[11.8.0.0^2.11.0^4.9.0^15,20]henicosa-1(21),2,4(9),5,7,10,15(20)-heptaene-14,18-dione], the IC50 is 84.4 nM and 84 nM in the series on SNU-81 cells (CHEK1 siRNA pool, read-out: IC50 in SNU-81, siCHEK1); 715 nM with SNU-81 cells (CHEK2 siRNA pool, read-out: IC50 in SNU-81, siCHEK2); 611 nM in the series on SNU-81 cells (non-targeting siRNA pool, read-out: IC50 in SNU-81, siNT); 0.7 nM in the series with SW837 cells (CHEK1 siRNA pool, read-out: IC50 in SW837, siCHEK1); 67 nM with SW837 cells (CHEK2 siRNA pool, read-out: IC50 in SW837, siCHEK2); 0.69 nM in the series with SW837 cells (Homo sapiens, SW837, CHEK1 siRNA pool, read-out: IC50 in SW837, siCHEK1). Further, the IC50 in the series on SW837 cells (Homo sapiens, SW837, CHEK2 siRNA pool, read-out: IC50 in SW837, siCHEK2) stood at 66.6 nM; with SW837 cells (Homo sapiens, SW837, non-targeting siRNA pool, read-out: IC50 in SW837, siNT), 84.4 nM; in the series with SW837 cells (non-targeting siRNA pool, read-out: IC50 in SW837, siNT), 84 nM. The “shift in IC50 of SN-38 on addition of siCHEK1” value with SNU-81 cells (SNU-81, siCHEK1 vs siNT) came to 7.2 fold; in the series on SW837 cells (SW837, siCHEK1 vs siNT), 120 fold.

As to `NC(=O)Nc1cc(-c2cccc(F)c2)sc1C(=O)N[C@H]1CCCNC1` [AZD7762, (S)-5-(3-Fluorophenyl)-N-(piperidin-3-yl)-3-ureidothiophene-2-carboxamide], in series [6] (AZD7762 = Anchor), the “synergy and activity rate in combination with 5-FU (DNA antimetab.)” value turned out to be 26%; the “synergy and activity rate in combination with Oxaliplatin (DNA alkyl.)” value worked out at 0%; the “synergy and activity rate in combination with Vinorelbine (Microtub.)” value was determined as 0%. Further, in series [6] (AZD7762 = Library), the “synergy and activity rate in combination with 5-FU (DNA antimetab.)” value is recorded as 28%; the “synergy and activity rate in combination with Oxaliplatin (DNA alkyl.)” value came out at 2%; the “synergy and activity rate in combination with Vinorelbine (Microtub.)” value is 4%.

With `COc1cccc(OCCCN)c1-c1cc(Nc2cnc(C#N)cn2)n[nH]1` [Prexasertib, 5-[[5-[2-(3-aminopropoxy)-6-methoxyphenyl]-1H-pyrazol-3-yl]amino]pyrazine-2-carbonitrile], the “synergy (Bliss window and HSA window)” value in series [1] was “high”.

Regarding `CCc1c2c(nc3ccc(OC(=O)N4CCC(N5CCCCC5)CC4)cc13)-c1cc3c(c(=O)n1C2)COC(=O)[C@]3(O)CC` [Irinotecan, [(19S)-10,19-diethyl-19-hydroxy-14,18-dioxo-17-oxa-3,13-diazapentacyclo[11.8.0.0^2.11.0^4.9.0^15,20]henicosa-1 (21),2,4(9),5,7,10,15(20)-heptaen-7-yl] 4-(1-piperidyl) piperidine-1-carboxylate], the IC50 in the series on LoVo cells is 15800 nM; in the series with HT-29 cells it was 5170 nM.

`N[C@@H]1CCCN(c2c(Br)cnc3[nH]cc(NC(=O)C4CC4)c23)C1` [GDC-0575, N-[4-[(3R)-3-amino-1-piperidyl]-5-bromo-1H-pyrrolo[2,3-b]pyridin-3-yl]cyclopropanecarboxamide]: the IC50 on CHEK1 is 1.2 nM.
